Experimental data reported in PMC9616048, “Thermal proteome profiling reveals Haemonchus orphan protein HCO_011565 as a target of the nematocidal small molecule UMW-868” (Frontiers in Pharmacology, 2022).
“Also recorded” adds a separate entry of the source.

Experiments:
eggs of H. contortus = test: Egg hatch assay; format: cell-based; conditions: Haemonchus contortus, 48 h; read-out: Egg hatch inhibition (IC50 in µM)
Method: Compounds were also assessed for their effect on the hatching of eggs of H. contortus in vitro. To do this, eggs were isolated from the faeces from sheep with patent (30 day-) H. contortus infection by sucrose flotation ([Mes et al., 2007]). Eggs were suspended in H2O at a concentration of one egg per µl. The eggs were dispensed into wells (in triplicate; 100 eggs per well) and incubated with two-fold serial dilutions (9 points from 50 μM to 0.2 µM in H2O) of individual test or control compounds for 48 h at 27°C and >90% relative humidity; wells with no compound were also included. The numbers (percentages) of eggs from which first-stage larvae (L1s) hatched were counted using a light microscope (M80, Leica) at a 40-times magnification. With reference to positive-control compounds (i.e., monepantel and moxidectin), IC50 values of compounds were calculated.

[1] = test system: H. contortus fourth-stage larvae (L4s) development; test: Dose-response evaluation, L4 development; format: cell-based, Haemonchus contortus; conditions: Haemonchus contortus; 168 h, analog series; read-out: L4 development inhibition (IC50 in µM)
Method: (§1) These evaluations were carried out to estimate the half-maximal inhibitory concentrations (IC50 values) for hit compounds against H. contortus xL3s. With reference to the two positive-control compounds (monepantel and moxidectin), IC50 values for compounds were estimated ([Preston et al., 2015]; [Taki et al., 2021a]) using two-fold serial dilution (in LB*; 9 points from 50 μM to 0.2 µM) in 96-well plates (cat. no. 3596; Corning) with larvae at a density of 300 H. contortus xL3s in 100 µl per well. Plates containing H. contortus xL3s were incubated at 38°C, 10% (v/v) CO2 and >90% relative humidity.
(§2) The motility of H. contortus xL3s and L4 development were measured following 168 h of incubation with compound ([Taki et al., 2021a]). Compound concentrations were log10-transformed and fitted using a variable slope four-parameter equation, constraining the highest value to 100% employing a least squares (ordinary) fit model using GraphPad Prism software (v.9.1.2). Compounds were tested by three independent experiments in triplicate. A one-way analysis of variance (ANOVA) with a Tukey’s multiple comparison test or an unpaired t-test was used to establish statistically significant differences in larval motility or development.

[2] = Cellular toxicity in HepG2 cells (crystal violet); format: cell-based, human; conditions: human, HepG2 human hepatoma cells; HepG2, 48 h; read-out: Cytotoxicity (48 h) CC50
Method: (§3) The toxicities of compounds on cell and mitochondria were assessed to estimate their half-maximal cytotoxic concentrations (CC50) and half-maximal mitotoxic concentrations (MC50), respectively. HepG2 human hepatoma cells were seeded into wells of a 96-well plate at a density of 5.5 × 10^4 cells per well in 80 µl of Dulbecco’s modified eagle medium (DMEM; with GlutaMax™ cat. no. 10566016 or 4 mM L-glutamine cat. no. 11966025; Thermo Fisher Scientific), supplemented with 25 mM D-glucose (cytotoxicity) or D-galactose (mitotoxicity), 10% (v/v) inactivated foetal bovine serum (iFBS), 100 IU/ml of penicillin, 100 μg/ml of streptomycin and 0.25 μg/ml of amphotericin B (designated DMEM*). Cells were allowed to adhere for 16 h at 37°C and 5% (v/v) CO2 at > 90% relative humidity, then, incubated for 48 h with individual, serially-diluted compounds (two-fold serial dilution in DMEM*; […]) in a final volume of 100 µl. For the assessment of toxicity on mitochondria, cells were starved of serum (DMEM* without iFBS) for 4 h prior to the 48 h-incubation with compounds ([Swiss and Will, 2011]; [Kamalian et al., 2015]). Two positive control compounds, doxorubicin (cytotoxic control) and M-666 (mitotoxic control) were each added to three individual wells in each 96-well plate at a single concentration of 10 µM. DMEM* + 0.25% (v/v) DMSO was added to 12 wells in each plate as negative controls. Monepantel and moxidectin were also serially diluted — prepared in the same manner as test compounds — and used as (“non-toxic”) reference compounds. After 48 h of incubation, cell viability was determined by the crystal violet staining method ([Śliwka et al., 2016]). The absorbance (595 nm) of treated cells was normalised with reference to the negative control (100% viability). To determine the CC50 and MC50 values, compound concentrations were log10-transformed, baseline-corrected using a respective positive control (doxorubicin or M-666) and fitted using a variable slope four-parameter equation with a least squares (ordinary) fit model using GraphPad Prism software (v.9.1.2). Compounds and controls were tested in triplicate.

H. contortus xL3s [3] = test: Dose-response evaluation, xL3 motility; format: cell-based; conditions: Haemonchus contortus, 168 h, analog series; read-out: xL3 motility reduction (IC50 in µM)
Method: as §1
as §2, with “Compound” for “The motility of H. contortus xL3s and L4 development were measured following 168 h of incubation with compound ([Taki et al., 2021a]). Compound”

[4] = test system: mitochondria of HepG2 human hepatoma cells; test: Mitochondrial toxicity in HepG2 cells (galactose medium); format: cell-based; conditions: HepG2, 48 h
Method: as §3

H. contortus xL3s [5] = test: Cell lethality in xL3s (Sytox Green staining); format: cell-based, Haemonchus contortus
Method: Fluorescence staining was employed to assess the ability of UMW-868 to reduce the viability of H. contortus. The xL3s were dispensed in 96-well plates at a density of 300 xL3 per well, and incubated with compounds UMW-868 or A-3155, non-active analogs of UMW-868, at 50 μM at 38°C, 10% (v/v) CO2 and >90% relative humidity. After 90 h of incubation, H. contortus xL3s were stained with Sytox Green nucleic acid stain (Thermo Fisher Scientific) at the final concentration of 1 µM in LB* in the same 96-well plates and incubated for 1 h at 38°C and 10% (v/v) CO2 with >90% relative humidity. Following the incubation, the viability of larvae was evaluated by measuring the relative fluorescent units (RFU) of xL3s using an Omega FLUOstar microplate reader (BMG Labtech), with excitation and emission wavelengths set at 485 nm and 520 nm, respectively. The 96-well plates containing the stained larvae were returned to the incubator for further 78 h; after a total of 168 h of compound exposure, the stained larvae were examined under an inverted fluorescence microscope (DM IL, Leica) equipped with a green fluorescent protein filter (470/500/525 […]; Leica), and imaged using Leica Application Suite software (Leica).

[6] = test system: exsheathed third-stage larvae (xL3s) of H. contortus; test: High throughput screen, xL3 motility (infrared light beam-interference); format: cell-based; conditions: Haemonchus contortus, 90 h, read-out: Motility reduction at 90 h (%)
Method: An established platform was used for compound screening ([Taki et al., 2021a]). Using a semi-automated liquid handling robot (VIAFLO ASSIST PLUS, Integra Biosciences), compounds were individually diluted to […] in LB* containing 0.2% (v/v) DMSO and then dispensed in 20 µl into the wells of sterile 384-well flat bottom microtitre plates (cat. no. 3680; Corning); 320 compounds were arrayed on each plate, with 16 wells being negative controls (with LB* + 0.2% DMSO) and four wells containing each monepantel (Zolvix; Elanco), moxidectin (Cydectin; Virbac), monepantel + abamectin (Zolvix Plus; Elanco) and compound MIPS-0018666 (abbreviated here as M-666) ([Le et al., 2018]) as positive controls (20 µM). Following the dilution and dispensing of compounds into plates, 80 H. contortus xL3s in 20 μl of LB* were transferred to individual wells; after this step, the final concentrations were 20 µM of test- or positive-control compound, and 0.2% of DMSO. During dispensing, xL3s were maintained in a homogenous suspension using a constant stream of bubbles produced employing an aquarium pump (H2Pro). Plates containing H. contortus xL3s were incubated at 38 °C, 10% (v/v) CO2 and >90% relative humidity.
After 90 h of incubation with compounds (20 μM), H. contortus xL3s motility was measured for 15 min in individual wells of each plate by infrared light beam-interference ([Simonetta and Golombek, 2007]) using a WMicroTracker ONE instrument (Phylumtech). Raw data captured were normalised against measurements obtained for the positive (monepantel) and negative (LB* + 0.2% DMSO) controls to remove plate-to-plate variation by calculating the percentage of motility using the program GraphPad Prism (v.9.1.2; GraphPad Software). A compound was considered active (“hit”) if it reduced larval motility by ≥ 70%. To continually assess the performance of the screening assay, the Z′-factor ([Zhang et al., 1999]) was calculated (using data for the DMSO and the M-666 controls) for individual plates (n = 43) and was consistently ≥0.7; reliable assays achieve a Z′-factor of between 0.5 and 1. The signal to background (S/B) ratio (for the same controls) ([Sui and Wu, 2007]) was consistently >200.

[7] = test system: H. contortus xL3 to L4 development; test: High throughput screen, larval development and phenotype at 168 h; format: cell-based, Haemonchus contortus; conditions: Haemonchus contortus, development to L4
Method: Following the measurement of xL3 motility, plates were incubated again for 78 h (i.e., a total of 168 h) under the same conditions. Thereafter, 40 µl of 1% (v/v) iodine were added to individual wells, and worms examined using a light microscope (M80, Leica) at 60-times magnification to assess larval development, based on the presence/absence of a well-developed pharynx ([Sommerville, 1966]), and/or phenotypic alterations with respect to untreated xL3s.

| IC50 (eggs of H. contortus) [µM] | IC50 (H. contortus xL3s [3]) [µM] | Structure (SMILES) | IC50 [1] [µM] | CC50 at 48 h [2] [µM] | Mitotoxicity (48 h) MC50 [4] [µM] | lethality / viability of xL3s (in words) (H. contortus xL3s [5]; 90 h) | dead cells detected microscopically in xL3s (Sytox Green) (H. contortus xL3s [5]; 168 h of exposure) | inhibition at 20 µM [6] [%] | inhibition at 20 µM [7] [%] |
| --- | --- | --- | --- | --- | --- | --- | --- | --- | --- |
| 13.1 | 12.1 | CCCc1ccc(-c2nc(-c3ccccc3)no2)cc1 [Compound A-3126] | 50 | > 50 | > 50.0 |  |  |  |  |
| > 50 | > 50 | c1ccc(-c2noc(-c3cccs3)n2)cc1 [Tioxazafen, 3-Phenyl-5-(thiophen-2-yl)-1,2,4-oxadiazole, reference compound] | > 50 | > 50 | > 50.0 |  |  |  |  |
| > 50 | 4 | FC(F)Oc1ccc(-c2nc(-c3cccs3)no2)cc1 [Compound A-4340, 5-(4-(Difluoromethoxy)phenyl)-3-(thiophen-2-yl)-1,2,4-oxadiazole] | 25 | > 50 | > 50.0 |  |  |  |  |
| > 50 | 1.6 | CCCc1ccc(-c2nc(-c3ccc(C(F)(F)F)cc3)no2)cc1 [Compound A-6501] | 6.3 | > 50 | > 50.0 |  |  |  |  |
| > 50 | 7.8 | CCOc1ccc(-c2nc(-c3cccs3)no2)cc1 [Compound A-3134] | > 50 | > 50 | > 50.0 |  |  |  |  |
| 7.5 | 4.8 | CCCc1ccc(-c2nc(-c3ccc(C)cc3)no2)cc1 [Compound A-3136] | 12.5 | > 50 | > 50.0 |  |  |  |  |
| 38 | 1.4 | CCCc1ccc(-c2nc(-c3ccc(OC)cc3)no2)cc1 [Compound A-6318, 3-(4-Methoxyphenyl)-5-(4-propylphenyl)-1,2,4-oxadiazole] | 1.6 | > 50 | 48.2 |  |  |  |  |
| > 50 | 1.4 | FC(F)Oc1ccc(-c2nc(-c3ccc(C(F)(F)F)cc3)no2)cc1 [Compound A-6325, 5-(4-(Difluoromethoxy)phenyl)-3-(4-(trifluoromethyl)phenyl)-1,2,4-oxadiazole] | 3.1 | > 50 | 36.3 |  |  |  |  |
|  |  | NC(=O)c1ccc(-c2nc(-c3cccs3)no2)cc1 [Compound A-3155] |  |  |  | remained viable; also recorded: non-lethal | no dead cells were detected |  |  |
| > 50 | 9.8 | FC(F)(F)Oc1ccc(-c2nc(-c3cccs3)no2)cc1 [Compound A-6316, 3-(Thiophen-2-yl)-5-(4-(trifluoromethoxy)phenyl)-1,2,4-oxadiazole] | > 50 | > 50 | > 50.0 |  |  |  |  |
| > 50 | > 50 | c1ccc(-c2nc(-c3cccs3)no2)cc1 [Compound A-4347, 5-Phenyl-3-(thiophen-2-yl)-1,2,4-oxadiazole] | > 50 | > 50 | > 50.0 |  |  |  |  |
|  |  | N#CC(C#N)=NNc1ccc(C(F)(F)F)cc1 [MBHF-hit1, 2-{2-[4-(trifluoromethyl)phenyl]hydrazono}malononitrile] |  |  |  |  |  | 102 | 100 |
